Laboratory results: patent publication US20060253078A1, “Method of treating skin disorders with stratum corneum piercing device” (priority 2005, published 2006)

Experiment: In vitro electrode-salicylic acid compatibility (color change of test solution)
Assay type: physicochemical
Details: for Solution color change: 1.5% salicylic acid in 50% ethanol/50% water, cathode Platinum
Protocol: The following experiment was conducted to determine the compatibility of electrodes with salicylic acid. A pair of test electrodes was immersed in 5 ml of 1.5% salicylic acid solution (solvent 50% ethanol/50% water). A pre-determined voltage was applied to the electrodes (by connecting the electrodes to a battery or batteries) for certain length of time as indicated in Table 3. Observations were made on color change of the test solution.

- Solution color change (anode Platinum, 3 V, 10 min): Colorless → yellow
- Solution color change (anode Platinum, 9 V, 10 min): Colorless → brown
- Solution color change (anode Zinc, 1.5 V, 10 min): No color change
- Solution color change (anode Zinc, 3 V, 10 min): No color change
- Solution color change (anode Zinc, 9 V, 30 min): No color change
- Discoloration of the solution (compatibility with salicylic acid) (platinum anode): resulted in discoloration
- Discoloration of the solution (compatibility with salicylic acid) (zinc anode, during passage of electric current): no discoloration
Structure (SMILES): O=C(O)c1ccccc1O [salicylic acid]
